The record followed here is patent publication US20220125051A1, “PRE-HARVEST DESICCATION METHOD” (SYNGENTA CROP PROTECTION AG, priority 2019, published 2022).

What all share (experiment): Post-emergence efficacy, Method A
Common to all, as to type: in vivo

For test [1], the system named is Euphorbia heterophylla (EPHHL). The following applies: evaluated after 13 days; for pest or weed control at 500 g/ha: Euphorbia heterophylla, post-emergence, 312 h. In short, it runs like this: (§1)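 Plants raised 14 days from seed in standard soil in a glasshouse (24/16 °C day/night, 14 h light, 65% humidity) were sprayed with compound dissolved in acetone plus IF50 solvent/emulsifier (50 g/l solution), diluted with 0.25% or 1% Empicol ESC70 + 1% ammonium sulphate. Damage was scored visually after 13 days (0 = none, 100 = total).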

Another test relates to Setaria faberi (SETFA). The following applies: evaluated after 13 days; for pest or weed control at 500 g/ha: Setaria faberi, post-emergence, 312 h. In short, it runs like this: as §1
Test [2] relates to Amaranthus palmeri (AMAPA). The following applies: evaluated after 13 days; for pest or weed control at 500 g/ha: Amaranthus palmeri, post-emergence, 312 h. The gist of the method: as §1
The test system of test [3] is Digitaria sanguinalis (DIGSA). Conditions: evaluated after 13 days; for pest or weed control at 500 g/ha: Digitaria sanguinalis, post-emergence, 312 h. The gist of the method: as §1
The subject of a further test is Eleusine indica (ELEIN). The following applies: evaluated after 13 days; for pest or weed control at 500 g/ha: Eleusine indica, post-emergence, 312 h. The gist of the method:
as §1

The subject of test [4] is Ipomoea hederacea (IPOHE). The following applies: evaluated after 13 days; for pest or weed control at 500 g/ha: Ipomoea hederacea, post-emergence, 312 h. The gist of the method: as §1
In test [5] the test system is Chenopodium album (CHEAL). The following applies: evaluated after 13 days; for pest or weed control at 500 g/ha: Chenopodium album, post-emergence, 312 h. In short, it runs like this:
as §1

Another test relates to Lolium perenne (LOLPE). The following applies: evaluated after 13 days; for pest or weed control at 500 g/ha: Lolium perenne, post-emergence, 312 h. The gist of the method: as §1
Test [6] relates to Echinochloa crus-galli (ECHCG). Conditions: evaluated after 13 days; for pest or weed control at 500 g/ha: Echinochloa crus-galli, post-emergence, 312 h. The gist of the method:
as §1

The mark [7] stands for this setting: Application rate 500 g/Ha, 100=total damage to plant, 0=no damage to plant, read-out: Control of weed species after post-emergence application, EPHHL.
Where [8] appears, read: Application rate 500 g/Ha, 100=total damage to plant, 0=no damage to plant, read-out: Control of weed species after post-emergence application, SETFA.
[9] abbreviates: Application rate 500 g/Ha, 100=total damage to plant, 0=no damage to plant, read-out: Control of weed species after post-emergence application, AMAPA.
Where [10] appears, read: Application rate 500 g/Ha, 100=total damage to plant, 0=no damage to plant, read-out: Control of weed species after post-emergence application, DIGSA.
[11] abbreviates: Application rate 500 g/Ha, 100=total damage to plant, 0=no damage to plant, read-out: Control of weed species after post-emergence application, ELEIN.
[12] abbreviates: Application rate 500 g/Ha, 100=total damage to plant, 0=no damage to plant, read-out: Control of weed species after post-emergence application, IPOHE.
Where [13] appears, read: Application rate 500 g/Ha, 100=total damage to plant, 0=no damage to plant, read-out: Control of weed species after post-emergence application, CHEAL.
Where [14] appears, read: Application rate 500 g/Ha, 100=total damage to plant, 0=no damage to plant, read-out: Control of weed species after post-emergence application, LOLPE.
Setting [15] is: Application rate 500 g/Ha, 100=total damage to plant, 0=no damage to plant, read-out: Control of weed species after post-emergence application, ECHCG.
[16] abbreviates: Application Rate 500 g/Ha, Method A, read-out: Control of weed species after post-emergence application, EPHHL (100=total damage to plant; 0=no damage to plant).
[17] abbreviates: Application Rate 500 g/Ha, Method A, read-out: Control of weed species after post-emergence application, SETFA (100=total damage to plant; 0=no damage to plant).
Setting [18] is: Application Rate 500 g/Ha, Method A, read-out: Control of weed species after post-emergence application, AMAPA (100=total damage to plant; 0=no damage to plant).
[19] abbreviates: Application Rate 500 g/Ha, Method A, read-out: Control of weed species after post-emergence application, DIGSA (100=total damage to plant; 0=no damage to plant).
Setting [20] is: Application Rate 500 g/Ha, Method A, read-out: Control of weed species after post-emergence application, ELEIN (100=total damage to plant; 0=no damage to plant).
The mark [21] stands for this setting: Application Rate 500 g/Ha, Method A, read-out: Control of weed species after post-emergence application, IPOHE (100=total damage to plant; 0=no damage to plant).
Setting [22] is: Application Rate 500 g/Ha, Method A, read-out: Control of weed species after post-emergence application, CHEAL (100=total damage to plant; 0=no damage to plant).
[23] abbreviates: Application Rate 500 g/Ha, Method A, read-out: Control of weed species after post-emergence application, LOLPE (100=total damage to plant; 0=no damage to plant).
The mark [24] stands for this setting: Application Rate 500 g/Ha, Method A, read-out: Control of weed species after post-emergence application, ECHCG (100=total damage to plant; 0=no damage to plant).
The mark [25] stands for this setting: Application Rate 500 g/Ha, Method A.

Like-named read-outs stand apart in the source and are kept apart here.

Turning to `O=S(=O)([O-])CC[n+]1ccc(-c2ccc(C(F)(F)F)nn2)cn1` [Compound A122], the pest or weed control at 500 g/ha in [1] (setting [7]) stood at 100%; in the test on Setaria faberi (SETFA) (setting [8]), 60%; in test [2] (setting [9]) it was 100%; in [3] (setting [10]) it was 40%; in the test on Eleusine indica (ELEIN) (setting [11]), 90%; in [4] (setting [12]) it was 70%. For the same molecule, the pest or weed control at 500 g/ha in test [5] (setting [13]) was found to be 100%; in the test with Lolium perenne (LOLPE) (setting [14]) it was 70%; in [6] (setting [15]), 40%.

On to `O=C(O)CC[n+]1ccc(-c2ccc(C(F)(F)F)cn2)cn1` [Compound A200], for which the pest or weed control at 500 g/ha in test [1] (setting [16]) was 70%; in the test with Setaria faberi (SETFA) (setting [17]), 50%; in test [2] (setting [18]) it was 100%; in test [3] (setting [19]) it was 40%; in the test with Eleusine indica (ELEIN) (setting [20]), 30%; in test [4] (setting [21]), 10%. The pest or weed control at 500 g/ha in [5] (setting [22]) was found to be 70%; with Lolium perenne (LOLPE) (setting [23]), 40%; in [6] (setting [24]), 40%.

Consider `O=S(=O)(O)CC[n+]1ccc(-c2cccnc2)cn1` [Compound A179], for which, in test [1] (setting [25]), the “Control of weed species after post-emergence application, EPHHL (100=total damage to plant; 0=no damage to plant)” value is reported as 60. For the same molecule, the “Control of weed species after post-emergence application, SETFA (100=total damage to plant; 0=no damage to plant)” value in the test on Setaria faberi (SETFA) (setting [25]) was determined as 60. Further, the “Control of weed species after post-emergence application, AMAPA (100=total damage to plant; 0=no damage to plant)” value in test [2] (setting [25]) is recorded as 30. Further, in test [3] (setting [25]), the “Control of weed species after post-emergence application, DIGSA (100=total damage to plant; 0=no damage to plant)” value is given as 50. Also, the “Control of weed species after post-emergence application, ELEIN (100=total damage to plant; 0=no damage to plant)” value in the test on Eleusine indica (ELEIN) (setting [25]) amounted to 50. Moreover, in test [4] (setting [25]), the “Control of weed species after post-emergence application, IPOHE (100=total damage to plant; 0=no damage to plant)” value is listed as 20. Moreover, in test [5] (setting [25]), the “Control of weed species after post-emergence application, CHEAL (100=total damage to plant; 0=no damage to plant)” value is listed as 30. Further, the “Control of weed species after post-emergence application, LOLPE (100=total damage to plant; 0=no damage to plant)” value in the test with Lolium perenne (LOLPE) (setting [25]) is 10. Besides, the “Control of weed species after post-emergence application, ECHCG (100=total damage to plant; 0=no damage to plant)” value in [6] (setting [25]) amounted to 40.

Consider `Cc1n[n+](CCC(=O)O)ccc1-c1ncccn1.O=C([O-])C(F)(F)F` [Compound A132], for which the pest or weed control at 500 g/ha in [1] (setting [7]) turned out to be 30%; in the test with Setaria faberi (SETFA) (setting [8]) it was 100%; in test [3] (setting [10]), 90%; in the test with Eleusine indica (ELEIN) (setting [11]), 90%; in test [4] (setting [12]) it was 10%; in [5] (setting [13]), 30%. Also, the values for the pest or weed control at 500 g/ha (in the test with Lolium perenne (LOLPE) (setting [14]); in test [6] (setting [15])) were 50% and 70%, respectively. In test [2] (Application rate 500 g/Ha, 100=total damage to plant, 0=no damage to plant), the “Control of weed species after post-emergence application, AMAPA” value turned out to be 90.

For `O=S(=O)([O-])CC[n+]1ccc(-c2cnc(C(F)(F)F)cn2)cn1` [Compound A112], the pest or weed control at 500 g/ha was determined as 80% in test [1] (setting [7]); 70% with Setaria faberi (SETFA) (setting [8]); 100% in test [2] (setting [9]); 40% in test [3] (setting [10]); 50% in the test on Eleusine indica (ELEIN) (setting [11]); 40% in test [4] (setting [12]). Besides, the pest or weed control at 500 g/ha in test [5] (setting [13]) is 100%; in the test on Lolium perenne (LOLPE) (setting [14]) it was 40%; in test [6] (setting [15]) it was 40%.

`CS(=O)(=O)NC(=O)CC[n+]1ccc(-c2ncccn2)cn1` [Compound A89]: the pest or weed control at 500 g/ha worked out at 100% in test [1] (setting [7]); 70% with Setaria faberi (SETFA) (setting [8]); 100% in test [2] (setting [9]); 50% in [3] (setting [10]); 40% in the test with Eleusine indica (ELEIN) (setting [11]); 70% in test [4] (setting [12]). For the same molecule, the pest or weed control at 500 g/ha in [5] (setting [13]) is 40%; in the test on Lolium perenne (LOLPE) (setting [14]) it was 40%; in test [6] (setting [15]), 60%.

`O=S(=O)(O)CC[n+]1ccc(-c2ccncc2F)cn1` [Compound A159]: the pest or weed control at 500 g/ha was determined as 80% in test [1] (setting [16]); 60% with Setaria faberi (SETFA) (setting [17]); 100% in [2] (setting [18]); 30% in [3] (setting [19]); 50% with Eleusine indica (ELEIN) (setting [20]); 50% in [4] (setting [21]). Besides, the figures for the pest or weed control at 500 g/ha (in test [5] (setting [22]); with Lolium perenne (LOLPE) (setting [23]); in test [6] (setting [24])) were 100%, 40% and 70%, respectively.

Regarding `CC(C)(C[n+]1ccc(-c2ncccn2)cn1)S(=O)(=O)[O-]` [Compound A114, 2-methyl-1-(4-pyrimidin-2-ylpyridazin-1-ium-1-yl)propane-2-sulfonate], the pest or weed control at 500 g/ha in test [1] (setting [7]) is 80%; in the test with Setaria faberi (SETFA) (setting [8]) it was 40%; in [2] (setting [9]), 100%; in test [3] (setting [10]), 80%; in the test with Eleusine indica (ELEIN) (setting [11]), 90%; in test [4] (setting [12]), 60%. For the same molecule, the pest or weed control at 500 g/ha in test [5] (setting [13]) was found to be 60%; with Lolium perenne (LOLPE) (setting [14]) it was 70%; in test [6] (setting [15]), 60%.

In the case of `COC(=O)C(C)[n+]1ccc(-c2ncccn2)cn1` (stereo not drawn) [Compound A192], the pest or weed control at 500 g/ha in test [1] (setting [16]) is 40%; in the test with Setaria faberi (SETFA) (setting [17]) it was 20%; in [2] (setting [18]), 90%; in [3] (setting [19]), 30%; with Eleusine indica (ELEIN) (setting [20]) it was 30%; in test [4] (setting [21]) it was 30%. Besides, the figures for the pest or weed control at 500 g/ha (in test [5] (setting [22]); in the test on Lolium perenne (LOLPE) (setting [23]); in test [6] (setting [24])) were 60%, 10% and 30%, respectively.

Consider `COc1cnc(-c2cc[n+](CCS(=O)(=O)[O-])nc2)nc1` [Compound A14], for which the pest or weed control at 500 g/ha came out at 20% in [1] (setting [7]); 60% in the test with Setaria faberi (SETFA) (setting [8]); 80% in test [2] (setting [9]); 90% in [3] (setting [10]); 90% in the test with Eleusine indica (ELEIN) (setting [11]); 40% in [4] (setting [12]). Further, the pest or weed control at 500 g/ha in [5] (setting [13]) came to 60%; in the test with Lolium perenne (LOLPE) (setting [14]) it was 40%; in test [6] (setting [15]), 60%.

On to `Cc1cccnc1-c1cc[n+](CCC(=O)[O-])nc1` [Compound A65], for which the pest or weed control at 500 g/ha in test [1] (setting [7]) worked out at 20%; with Setaria faberi (SETFA) (setting [8]), 40%; in [2] (setting [9]), 40%; in test [3] (setting [10]) it was 30%; with Eleusine indica (ELEIN) (setting [11]), 40%; in test [4] (setting [12]) it was 10%. The pest or weed control at 500 g/ha in test [5] (setting [13]) was found to be 10%; in the test on Lolium perenne (LOLPE) (setting [14]) it was 10%; in test [6] (setting [15]), 30%.
